Measurements: patent publication US20150133664A1, “CHEMICAL TRANS[…] (-)-CODEINE TO AFFORD DERIVATIVES OF CODEINE AND MORPHINE THEREOF” (BOARD OF REGENTS, THE UNIVERSITY OF TEXAS SYSTEM, priority 2012, published 2015)

Experiment: potency compared with codeine and morphine (test not described)
Conditions: no assay, value or method printed

Structure (SMILES) | potency compared with morphine (compared with morphine) | potency compared with codeine (compared with codeine)
C[C@@H]1C[C@H]2[C@H]3Cc4ccc(O)c5c4[C@@]2(CCN3C)[C@@H](O5)C1O (stereo partly drawn) [Compound 9, 7β-Methyl-7,8-dihydromorphine] | increased potency | –
COc1ccc2c3c1O[C@H]1C(O)[C@H](C)C[C@H]4[C@@H](C2)N(C)CC[C@]314 (stereo partly drawn) [Compound 8, 7β-Methyl-7,8-dihydrocodeine] | – | increased potency
